In brackets after ≈: the same amount, converted by molar mass.
Assays:
Assay type in all cases: cell-based
[1] = test system: Enterococcus faecalis ATCC 29212; assay: Broth microdilution MIC, E. faecalis ATCC 29212; settings: Enterococcus faecalis ATCC 29212; for MIC: ATCC29212, read-out: MIC E. f. 29212
Description: (§1) Compounds were evaluated for antimicrobial activity against a panel of bacterial strains using a broth microdilution assay performed as recommended by the NCCLS (NCCLS (National Committee for Clinical Laboratory Standards). 1993. Methods for dilution antimicrobial susceptibility tests for bacteria that grow aerobically. NCCLS Document M7-A3, 1993. In: NCCLS Antimicrobial Susceptibility Testing, 3rd Ed.)
(§2) The minimum inhibitory concentration (MIC) is defined as the lowest concentration of a compound that prevents the growth of the bacteria.

[2] = test system: Enterococcus faecium ATCC 35667; assay: Broth microdilution MIC, E. faecium ATCC 35667; settings: Enterococcus faecium ATCC 35667; for MIC: ATCC35667, read-out: MIC E. f. 35667
Description: as §1, §2

[3] = test system: Staphylococcus aureus ATCC 29213 (MSSA); assay: Broth microdilution MIC, S. aureus ATCC 29213; settings: Staphylococcus aureus ATCC 29213 (MSSA); for MIC: read-out: MIC S. a. 29213
Description: as §1, §2

[4] = test system: Staphylococcus aureus COL (MRSA, non-β-lactamase producing); assay: Broth microdilution MIC, S. aureus COL; settings: Staphylococcus aureus COL (MRSA, non-β-lactamase producing); for MIC: read-out: MIC S. a. COL
Description: as §1, §2

[5] = test system: Staphylococcus aureus 76 (MRSA, β-lactamase producing); assay: Broth microdilution MIC, S. aureus 76; settings: Staphylococcus aureus 76 (MRSA, β-lactamase producing); for MIC: read-out: MIC S. a. 76
Description: as §1, §2

[6] = test system: Staphylococcus aureus Smith (MSSA); assay: Broth microdilution MIC, S. aureus Smith; settings: Staphylococcus aureus Smith (MSSA); read-out: MIC S. a. Smith
Description: as §1, §2

| Compound | MIC E. f. 29212 [1] [µg/mL] | MIC E. f. 35667 [2] [µg/mL] | MIC S. a. 29213 [3] [µg/mL] | MIC S. a. COL [4] [µg/mL] | MIC S. a. 76 [5] [µg/mL] | MIC [1] [µg/mL] | MIC [2] [µg/mL] | MIC [3] [µg/mL] | MIC [4] [µg/mL] | MIC [5] [µg/mL] | MIC [6] [µg/mL] |
| --- | --- | --- | --- | --- | --- | --- | --- | --- | --- | --- | --- |
| CON=C(C(=O)NC1C(=O)N2C(C(=O)O)=C(Sc3ccccc3Br)CSC12)c1csc(N)n1 (stereo not drawn) [Compound 5] | >32 | 32 (≈ 56.1 µM) | 0.5 (≈ 0.876 µM) | 16 (≈ 28 µM) | 16 (≈ 28 µM) |  |  |  |  |  |  |
| CON=C(C(=O)NC1C(=O)N2C(C(=O)O)=C(Sc3ccc(Br)cc3)CSC12)c1csc(N)n1 (stereo not drawn) [Compound 6] | 16 (≈ 28 µM) | 16 (≈ 28 µM) | <0.015 |  | 32 (≈ 56.1 µM) |  |  |  |  |  |  |
| Nc1nc(C(=NO)C(=O)NC2C(=O)N3C(C(=O)O)=C(Sc4ccccc4I)CSC23)cs1 (stereo not drawn) [Compound 7] |  | 2 (≈ 3.31 µM) | <0.25 | 2 (≈ 3.31 µM) | 4 (≈ 6.63 µM) |  |  |  |  |  |  |
| CON=C(C(=O)NC1C(=O)N2C(C(=O)O)=C(Sc3ccccc3I)CSC12)c1csc(N)n1 (stereo not drawn) [Compound 8] |  | 32 (≈ 51.8 µM) | 1 (≈ 1.62 µM) | 32 (≈ 51.8 µM) | 32 (≈ 51.8 µM) |  |  |  |  |  |  |
| Nc1nc(/C(=N/OC2CCCC2)C(=O)N[C@@H]2C(=O)N3C(C(=O)O)=C(Sc4ccccc4I)CS[C@H]23)cs1 [Compound 9] | 2 (≈ 2.98 µM) | 2 (≈ 2.98 µM) | <0.25 | 1 (≈ 1.49 µM) | 2 (≈ 2.98 µM) |  |  |  |  |  |  |
| Nc1nc(C(=NO)C(=O)NC2C(=O)N3C(C(=O)O)=C(Sc4ccccc4-c4ccccc4)CSC23)cs1 (stereo not drawn) [Compound 10] | 2 (≈ 3.61 µM) | 2 (≈ 3.61 µM) | 0.5 (≈ 0.903 µM) | 4 (≈ 7.22 µM) | 8 (≈ 14.4 µM) |  |  |  |  |  |  |
| N#Cc1ccccc1SC1=C(C(=O)O)N2C(=O)[C@@H](NC(=O)/C(=N\OC3CCCC3)c3csc(N)n3)[C@H]2SC1 [Compound 12] | 8 (≈ 14 µM) | 8 (≈ 14 µM) | 1 (≈ 1.75 µM) | 4 (≈ 7.01 µM) | 8 (≈ 14 µM) |  |  |  |  |  |  |
| Nc1nc(/C(=N/OCCF)C(=O)N[C@@H]2C(=O)N3C(C(=O)O)=C(Sc4ccnn4-c4ccccc4)CS[C@H]23)cs1 [Compound 14] |  |  |  |  |  | 32 (≈ 54.3 µM) | 16 (≈ 27.1 µM) | 1 (≈ 1.7 µM) | 8 (≈ 13.6 µM) | 16 (≈ 27.1 µM) |  |
| Nc1nc(/C(=N/O)C(=O)N[C@@H]2C(=O)N3C(C(=O)O)=C(Sc4ccnn4-c4ccccc4)CS[C@H]23)cs1 [Compound 15] |  |  |  |  |  | 2 (≈ 3.68 µM) | 8 (≈ 14.7 µM) | 1 (≈ 1.84 µM) | 16 (≈ 29.4 µM) | 32 (≈ 58.9 µM) |  |
| Nc1nc(/C(=N/OCCF)C(=O)N[C@@H]2C(=O)N3C(C(=O)O)=C(Sc4ccnn4-c4ccccc4)CS[C@H]23)c(Cl)s1 [Compound 16] |  |  |  |  |  | 1 (≈ 1.6 µM) | 4 (≈ 6.41 µM) | 0.5 (≈ 0.801 µM) | 2 (≈ 3.2 µM) | 4 (≈ 6.41 µM) | 0.5 (≈ 0.801 µM) |
| CC(C)(C)O/N=C(\C(=O)N[C@@H]1C(=O)N2C(C(=O)O)=C(Sc3ccnn3-c3ccccc3)CS[C@H]12)c1csc(N)n1 [Compound 18] |  |  |  |  |  | 2 (≈ 3.33 µM) | 16 (≈ 26.7 µM) | 1 (≈ 1.67 µM) | 8 (≈ 13.3 µM) | 16 (≈ 26.7 µM) | 1 (≈ 1.67 µM) |

Source: patent publication US6599893B2, “Cephalosporin antibiotics and prodrugs thereof” (Essential Therapeutics, Inc., priority 2000, dated 2003)
